Experimental data from patent US4639541A, “Substituted phenylacetic acid iodopropargyl esters, biocidal agents containing same and process for manufacturing same” (priority 1984, dated 1987).

Key:
Alternaria tenuis = assay: Spore germination test, Alternaria tenuis; type: cell-based; settings: 48 hours, 20° C., vs untreated control
Procedure: (§1) 50 μl of a solution or suspension of an active ingredient according to the invention together with 50 μl of a spore suspension produced by washing spores of an agar culture with a nutrient solution that contained per liter 10 g of sugar, 1 g of glycol, 1 g of KH2 PO4 and 0.5 g of MgSO4 were introduced into the concave-ground portion of concave-ground microscope slides.
(§2) The microscope slides were stored at 20° C. for 48 hours in a Petri dish, the base of which was covered with a moistened filter paper.
(§3) Subsequently, the ratio of germinated and non-germinated spores was compared with an untreated control specimen.
(§4) The degree of activity was calculated as a percentage in accordance with the following formula: [formula]

Botrytis cinerea [1] = assay: Spore germination test, Botrytis cinerea; type: cell-based; settings: 48 hours, 20° C., vs untreated control
Procedure: as §1, §2, §3, §4

Fusarium culmorum = assay: Spore germination test, Fusarium culmorum; type: cell-based; settings: 48 hours, 20° C., vs untreated control
Procedure: as §1, §2, §3, §4

Fusarium nivale = assay: Spore germination test, Fusarium nivale; type: cell-based; settings: 48 hours, 20° C., vs untreated control
Procedure: as §1, §2, §3, §4

Colletotrichum coffeanum = assay: Spore germination test, Colletotrichum coffeanum; type: cell-based; settings: 48 hours, 20° C., vs untreated control
Procedure: as §1, §2, §3, §4

Verticillium dahliae = assay: Spore germination test, Verticillium dahliae; type: cell-based; settings: 48 hours, 20° C., vs untreated control
Procedure: as §1, §2, §3, §4

Penicillium glaucum = assay: Spore germination test, Penicillium glaucum; type: cell-based; settings: 48 hours, 20° C., vs untreated control
Procedure: as §1, §2, §3, §4

Botrytis cinerea [2] = assay: Fungicidal activity against Botrytis cinerea in broad beans; type: in vivo; settings: 500 ppm spray, broad beans "Midget", after 6 days, 20° C., 95% humidity, vs untreated
Procedure: Broad beans of the "Midget" variety were grown to a height of approximately 10 cm. The plants were sprayed until dripping wet with spray liquors containing 500 ppm of active ingredient.
When the spray coating had dried, the plants were inoculated with a spore suspension of Botrytis cinerea. The plants were placed in a climatic cabinet at a constant 20° C. and an atmospheric humidity of 95%.
After 6 days, fungicidal activity was evaluated. The activity was ascertained in comparison with untreated specimens.
The degree of activity as a percentage was ascertained in accordance with the following formula [formula] The following were used as active ingredients: I 2-chloro-3,5-dinitrophenylacetic acid iodopropargyl ester

O=C(Cc1ccccc1)OCC#CI [V]
inhibition of growth at 1 ppm (Alternaria tenuis; Alternaria alternata, 1 ppm, read-out: degree of activity (fungal toxicity with respect to fungal spores)): 80% | inhibition of growth at 2 ppm (Alternaria tenuis; Alternaria alternata, 2 ppm, read-out: degree of activity (fungal toxicity with respect to fungal spores)): 90% | inhibition of growth at 4 ppm (Alternaria tenuis; Alternaria alternata, 4 ppm, read-out: degree of activity (fungal toxicity with respect to fungal spores)): 100% | inhibition of growth at 1 ppm (Botrytis cinerea [1]; Botrytis cinerea, 1 ppm, read-out: degree of activity (fungal toxicity with respect to fungal spores)): 0% | inhibition of growth at 2 ppm (Botrytis cinerea [1]; Botrytis cinerea, 2 ppm, read-out: degree of activity (fungal toxicity with respect to fungal spores)): 0% | inhibition of growth at 4 ppm (Botrytis cinerea [1]; Botrytis cinerea, 4 ppm, read-out: degree of activity (fungal toxicity with respect to fungal spores)): 50% | inhibition of growth at 1 ppm (Fusarium culmorum; Fusarium culmorum, 1 ppm, read-out: degree of activity (fungal toxicity with respect to fungal spores)): 0% | inhibition of growth at 2 ppm (Fusarium culmorum; Fusarium culmorum, 2 ppm, read-out: degree of activity (fungal toxicity with respect to fungal spores)): 0% | inhibition of growth at 4 ppm (Fusarium culmorum; Fusarium culmorum, 4 ppm, read-out: degree of activity (fungal toxicity with respect to fungal spores)): 40% | inhibition of growth at 1 ppm (Fusarium nivale; Microdochium nivale, 1 ppm, read-out: degree of activity (fungal toxicity with respect to fungal spores)): 60% | inhibition of growth at 2 ppm (Fusarium nivale; Microdochium nivale, 2 ppm, read-out: degree of activity (fungal toxicity with respect to fungal spores)): 70% | inhibition of growth at 4 ppm (Fusarium nivale; Microdochium nivale, 4 ppm, read-out: degree of activity (fungal toxicity with respect to fungal spores)): 90% | inhibition of growth at 1 ppm (Colletotrichum coffeanum; Colletotrichum coffeanum, 1 ppm, read-out: degree of activity (fungal toxicity with respect to fungal spores)): 20% | inhibition of growth at 2 ppm (Colletotrichum coffeanum; Colletotrichum coffeanum, 2 ppm, read-out: degree of activity (fungal toxicity with respect to fungal spores)): 30% | inhibition of growth at 4 ppm (Colletotrichum coffeanum; Colletotrichum coffeanum, 4 ppm, read-out: degree of activity (fungal toxicity with respect to fungal spores)): 80% | inhibition of growth at 1 ppm (Verticillium dahliae; Verticillium dahliae, 1 ppm, read-out: degree of activity (fungal toxicity with respect to fungal spores)): 0% | inhibition of growth at 2 ppm (Verticillium dahliae; Verticillium dahliae, 2 ppm, read-out: degree of activity (fungal toxicity with respect to fungal spores)): 0% | inhibition of growth at 4 ppm (Verticillium dahliae; Verticillium dahliae, 4 ppm, read-out: degree of activity (fungal toxicity with respect to fungal spores)): 30% | inhibition of growth at 1 ppm (Penicillium glaucum; Penicillium, 1 ppm, read-out: degree of activity (fungal toxicity with respect to fungal spores)): 0% | inhibition of growth at 2 ppm (Penicillium glaucum; Penicillium, 2 ppm, read-out: degree of activity (fungal toxicity with respect to fungal spores)): 0% | inhibition of growth at 4 ppm (Penicillium glaucum; Penicillium, 4 ppm, read-out: degree of activity (fungal toxicity with respect to fungal spores)): 40% | % Activity against Botrytis cinerea in broad beans (Botrytis cinerea [2]): 0%

O=C(Cc1cc([N+](=O)[O-])c(Cl)c([N+](=O)[O-])c1)OCC#CI [H]
degree of activity (fungal toxicity with respect to fungal spores) (Alternaria tenuis; 2 ppm): 100% | degree of activity (fungal toxicity with respect to fungal spores) (Botrytis cinerea [1]; 2 ppm): 70% | degree of activity (fungal toxicity with respect to fungal spores) (Fusarium culmorum; 2 ppm): 90% | degree of activity (fungal toxicity with respect to fungal spores) (Fusarium nivale; 2 ppm): 90% | degree of activity (fungal toxicity with respect to fungal spores) (Colletotrichum coffeanum; 2 ppm): 100% | degree of activity (fungal toxicity with respect to fungal spores) (Verticillium dahliae; 2 ppm): 40% | degree of activity (fungal toxicity with respect to fungal spores) (Penicillium glaucum; 2 ppm): 100% | % Activity against Botrytis cinerea in broad beans (Botrytis cinerea [2]): 30%
